Test results reported in ChEMBL document CHEMBL4811221, “Diosgenin Derivatives as Potential Antitumor Agents: Synthesis, Cytotoxicity, and Mechanism of Action” (J Nat Prod, 2021).

How the values were obtained:
HepG2 = assay: Cytotoxicity against human HepG2 cells assessed as cell growth inhibition measured after 24 hrs by MTT assay; type: functional, cell-based; settings: HepG2, 24 h
MCF7 = assay: Cytotoxicity against human MCF7 cells assessed as cell growth inhibition measured after 24 hrs by MTT assay; type: functional, cell-based; settings: MCF7, 24 h
A549 = assay: Cytotoxicity against human A549 cells assessed as cell growth inhibition measured after 24 hrs by MTT assay; type: functional, cell-based; settings: A549, 24 h
L02 = assay: Cytotoxicity against human L02 cells assessed as cell growth inhibition measured after 24 hrs by MTT assay; type: cell-based; settings: L02, 24 h

Row | Compound | IC50 (HepG2) [µM] | IC50 (MCF7) [µM] | IC50 (A549) [µM] | IC50 (L02) [µM]
1 | C[C@@H]1CC[C@@]2(OC1)O[C@H]1C[C@H]3[C@@H]4CC=C5C[C@@H](OC(=O)c6ccccc6C(=O)N6CCCC6)CC[C@]5(C)[C@H]4CC[C@]3(C)[C@H]1[C@@H]2C | > 10 | > 10 | – | –
2 | CC(=O)O[C@H]1C(=O)[C@@]2(C)[C@H]([C@H](OC(=O)c3ccccc3)[C@]3(O)C[C@H](OC(=O)[C@H](O)[C@@H](NC(=O)c4ccccc4)c4ccccc4)C(C)=C1C3(C)C)[C@]1(OC(C)=O)CO[C@@H]1C[C@@H]2O [PACLITAXEL] | – | – | 5.4 | > 100
3 | CCN(CC)C(=O)CCC(=O)O[C@H]1CC[C@@]2(C)C(=CC[C@H]3[C@@H]4C[C@@H]5O[C@]6(CC[C@@H](C)CO6)[C@@H](C)[C@@H]5[C@@]4(C)CC[C@@H]32)C1 | > 10 | > 10 | 4.5 | –
4 | CCN(CC)C(=O)c1ccccc1C(=O)O[C@H]1CC[C@@]2(C)C(=CC[C@H]3[C@@H]4C[C@@H]5O[C@]6(CC[C@@H](C)CO6)[C@@H](C)[C@@H]5[C@@]4(C)CC[C@@H]32)C1 | > 10 | > 10 | – | –
5 | C[C@@H]1CC[C@@]2(OC1)O[C@H]1C[C@H]3[C@@H]4CC=C5C[C@@H](OC(=O)CCCC(=O)N6CCCC6)CC[C@]5(C)[C@H]4CC[C@]3(C)[C@H]1[C@@H]2C | 8.3 | > 10 | 5.6 | –
6 | C[C@@H]1CC[C@@]2(OC1)O[C@H]1C[C@H]3[C@@H]4CC=C5C[C@@H](OC(=O)c6ccccc6C(=O)N6CCNCC6)CC[C@]5(C)[C@H]4CC[C@]3(C)[C@H]1[C@@H]2C | 7.5 | 8.1 | 7.2 | 27.8
7 | C[C@@H]1CC[C@@]2(OC1)O[C@H]1C[C@H]3[C@@H]4CC=C5C[C@@H](OC(=O)c6ccccc6C(=O)N6CCOCC6)CC[C@]5(C)[C@H]4CC[C@]3(C)[C@H]1[C@@H]2C | > 10 | > 10 | – | –
8 | CCN(CC)C(=O)CCCC(=O)O[C@H]1CC[C@@]2(C)C(=CC[C@H]3[C@@H]4C[C@@H]5O[C@]6(CC[C@@H](C)CO6)[C@@H](C)[C@@H]5[C@@]4(C)CC[C@@H]32)C1 | > 10 | > 10 | 7.4 | –
9 | C[C@@H]1CC[C@@]2(OC1)O[C@H]1C[C@H]3[C@@H]4CC=C5C[C@@H](OC(=O)CCC(=O)N6CCN(S(=O)(=O)c7ccccc7)CC6)CC[C@]5(C)[C@H]4CC[C@]3(C)[C@H]1[C@@H]2C | > 10 | > 10 | 8.7 | –
10 | C[C@@H]1CC[C@@]2(OC1)O[C@H]1C[C@H]3[C@@H]4CC=C5C[C@@H](OC(=O)CCCC(=O)N6CCc7ccccc7C6)CC[C@]5(C)[C@H]4CC[C@]3(C)[C@H]1[C@@H]2C | > 10 | > 10 | – | –
11 | CCN(CC)C(=O)/C=C\C(=O)O[C@H]1CC[C@@]2(C)C(=CC[C@H]3[C@@H]4C[C@@H]5O[C@]6(CC[C@@H](C)CO6)[C@@H](C)[C@@H]5[C@@]4(C)CC[C@@H]32)C1 | > 10 | > 10 | 7.1 | –
12 | C[C@@H]1CC[C@@]2(OC1)O[C@H]1C[C@H]3[C@@H]4CC=C5C[C@@H](OC(=O)CCC(=O)N6CCN(S(=O)(=O)C7CC7)CC6)CC[C@]5(C)[C@H]4CC[C@]3(C)[C@H]1[C@@H]2C | > 10 | > 10 | 4.2 | –
13 | C=CS(=O)(=O)N1CCN(C(=O)CCC(=O)O[C@H]2CC[C@@]3(C)C(=CC[C@H]4[C@@H]5C[C@@H]6O[C@]7(CC[C@@H](C)CO7)[C@@H](C)[C@@H]6[C@@]5(C)CC[C@@H]43)C2)CC1 | 5.1 | > 10 | 4.1 | 23.6
14 | Cc1ccc(S(=O)(=O)N2CCN(C(=O)CCC(=O)O[C@H]3CC[C@@]4(C)C(=CC[C@H]5[C@@H]6C[C@@H]7O[C@]8(CC[C@@H](C)CO8)[C@@H](C)[C@@H]7[C@@]6(C)CC[C@@H]54)C3)CC2)cc1 | > 10 | > 10 | 4.7 | –
15 | C[C@@H]1CC[C@@]2(OC1)O[C@H]1C[C@H]3[C@@H]4CC=C5C[C@@H](OC(=O)CCCC(=O)N6CCOCC6)CC[C@]5(C)[C@H]4CC[C@]3(C)[C@H]1[C@@H]2C | > 10 | > 10 | 8.6 | –
16 | C[C@@H]1CC[C@@]2(OC1)O[C@H]1C[C@H]3[C@@H]4CC=C5C[C@@H](OC(=O)c6ccccc6C(=O)N6CCc7ccccc7C6)CC[C@]5(C)[C@H]4CC[C@]3(C)[C@H]1[C@@H]2C | > 10 | > 10 | – | –
17 | C[C@@H]1CC[C@@]2(OC1)O[C@H]1C[C@H]3[C@@H]4CC=C5C[C@@H](OC(=O)CCC(=O)N6CCOCC6)CC[C@]5(C)[C@H]4CC[C@]3(C)[C@H]1[C@@H]2C | 10.4 | > 10 | 3.2 | 34.3

Row | Compound | IC50 (HepG2) [µM] | IC50 (MCF7) [µM] | IC50 (A549) [µM] | IC50 (L02) [µM]
18 | C[C@@H]1CC[C@@]2(OC1)O[C@H]1C[C@H]3[C@@H]4CC=C5C[C@@H](OC(=O)CCC(=O)N6CC[N+](Cc7ccc(C(C)(C)C)cc7)(Cc7ccc(C(C)(C)C)cc7)CC6)CC[C@]5(C)[C@H]4CC[C@]3(C)[C@H]1[C@@H]2C | 6.7 | 6 | 3 | 21.2
19 | C[C@@H]1CC[C@@]2(OC1)O[C@H]1C[C@H]3[C@@H]4CC=C5C[C@@H](O)CC[C@]5(C)[C@H]4CC[C@]3(C)[C@H]1[C@@H]2C [DISOGENIN] | > 10 | > 10 | > 10 | –
20 | C[C@@H]1CC[C@@]2(OC1)O[C@H]1C[C@H]3[C@@H]4CC=C5C[C@@H](OC(=O)CCC(=O)N6CC[N+](Cc7ccc(Cl)cc7)(Cc7ccc(Cl)cc7)CC6)CC[C@]5(C)[C@H]4CC[C@]3(C)[C@H]1[C@@H]2C | > 10 | > 10 | 5.4 | –
21 | C[C@@H]1CC[C@@]2(OC1)O[C@H]1C[C@H]3[C@@H]4CC=C5C[C@@H](OC(=O)CCC(=O)N6CC[N+](Cc7ccccc7)(Cc7ccccc7)CC6)CC[C@]5(C)[C@H]4CC[C@]3(C)[C@H]1[C@@H]2C | 6.4 | 9.4 | 2.9 | 18.7
22 | C[C@@H]1CC[C@@]2(OC1)O[C@H]1C[C@H]3[C@@H]4CC=C5C[C@@H](OC(=O)/C=C\C(=O)N6CCNCC6)CC[C@]5(C)[C@H]4CC[C@]3(C)[C@H]1[C@@H]2C | > 10 | 2.3 | – | 39.1
23 | Cc1ccc(C[N+]2(Cc3ccc(C)cc3)CCN(C(=O)CCC(=O)O[C@H]3CC[C@@]4(C)C(=CC[C@H]5[C@@H]6C[C@@H]7O[C@]8(CC[C@@H](C)CO8)[C@@H](C)[C@@H]7[C@@]6(C)CC[C@@H]54)C3)CC2)cc1 | 6.1 | > 10 | 3.6 | 18.4
24 | C[C@@H]1CC[C@@]2(OC1)O[C@H]1C[C@H]3[C@@H]4CC=C5C[C@@H](OC(=O)CCC(=O)N6CCN(S(=O)(=O)O)CC6)CC[C@]5(C)[C@H]4CC[C@]3(C)[C@H]1[C@@H]2C | > 10 | > 10 | – | –
25 | C[C@@H]1CC[C@@]2(OC1)O[C@H]1C[C@H]3[C@@H]4CC=C5C[C@@H](OC(=O)/C=C\C(=O)N6CCc7ccccc7C6)CC[C@]5(C)[C@H]4CC[C@]3(C)[C@H]1[C@@H]2C | – | – | 7.6 | –
26 | C[C@@H]1CC[C@@]2(OC1)O[C@H]1C[C@H]3[C@@H]4CC=C5C[C@@H](OC(=O)CCCC(=O)N6CCNCC6)CC[C@]5(C)[C@H]4CC[C@]3(C)[C@H]1[C@@H]2C | 2 | 6 | 3.2 | 14.8
27 | C[C@@H]1CC[C@@]2(OC1)O[C@H]1C[C@H]3[C@@H]4CC=C5C[C@@H](OC(=O)/C=C\C(=O)N6CCCC6)CC[C@]5(C)[C@H]4CC[C@]3(C)[C@H]1[C@@H]2C | > 10 | > 10 | – | –
28 | COc1ccc(C[N+]2(Cc3ccc(OC)cc3)CCN(C(=O)CCC(=O)O[C@H]3CC[C@@]4(C)C(=CC[C@H]5[C@@H]6C[C@@H]7O[C@]8(CC[C@@H](C)CO8)[C@@H](C)[C@@H]7[C@@]6(C)CC[C@@H]54)C3)CC2)cc1 | 9.9 | 9.3 | 5.7 | 23.3
29 | CCS(=O)(=O)N1CCN(C(=O)CCC(=O)O[C@H]2CC[C@@]3(C)C(=CC[C@H]4[C@@H]5C[C@@H]6O[C@]7(CC[C@@H](C)CO7)[C@@H](C)[C@@H]6[C@@]5(C)CC[C@@H]43)C2)CC1 | > 10 | > 10 | 6.2 | –
30 | C[C@@H]1CC[C@@]2(OC1)O[C@H]1C[C@H]3[C@@H]4CC=C5C[C@@H](OC(=O)CCC(=O)N6CCCC6)CC[C@]5(C)[C@H]4CC[C@]3(C)[C@H]1[C@@H]2C | > 10 | > 10 | – | –
31 | C[C@@H]1CC[C@@]2(OC1)O[C@H]1C[C@H]3[C@@H]4CC=C5C[C@@H](OC(=O)/C=C\C(=O)N6CCOCC6)CC[C@]5(C)[C@H]4CC[C@]3(C)[C@H]1[C@@H]2C | > 10 | > 10 | 5.5 | –
32 | C[C@@H]1CC[C@@]2(OC1)O[C@H]1C[C@H]3[C@@H]4CC=C5C[C@@H](OC(=O)CCC(=O)N6CCN(S(=O)(=O)c7ccc(F)cc7)CC6)CC[C@]5(C)[C@H]4CC[C@]3(C)[C@H]1[C@@H]2C | > 10 | > 10 | 3.7 | –
33 | C[C@@H]1CC[C@@]2(OC1)O[C@H]1C[C@H]3[C@@H]4CC=C5C[C@@H](OC(=O)CCC(=O)N6CCc7ccccc7C6)CC[C@]5(C)[C@H]4CC[C@]3(C)[C@H]1[C@@H]2C | > 10 | > 10 | – | –
